Measurements taken from US20260216400A1, “CELL-[…] MOLECULE IMPARTING PROTEIN ADHESION […] CELLS” (THE UNIVERSITY OF OSAKA, priority 2023, published 2026).

Legend:
Test in all cases: Binding of FITC-labeled collagen-binding peptides to coated wells (Example 6)
type I collagen = type I collagen (Homo sapiens, UniProt P02452+P08123)
laminin = conditions: 37° C., 3 hours
Protocol: (§1) The selectivity of collagen-binding peptides for components of the extracellular matrix was investigated. […] After washing, the fluorescence intensity was measured using a confocal laser scanning microscope.

type IV collagen = conditions: 37° C., 3 hours
Protocol: as §1

type I collagen, sequence (P08123 80-1119): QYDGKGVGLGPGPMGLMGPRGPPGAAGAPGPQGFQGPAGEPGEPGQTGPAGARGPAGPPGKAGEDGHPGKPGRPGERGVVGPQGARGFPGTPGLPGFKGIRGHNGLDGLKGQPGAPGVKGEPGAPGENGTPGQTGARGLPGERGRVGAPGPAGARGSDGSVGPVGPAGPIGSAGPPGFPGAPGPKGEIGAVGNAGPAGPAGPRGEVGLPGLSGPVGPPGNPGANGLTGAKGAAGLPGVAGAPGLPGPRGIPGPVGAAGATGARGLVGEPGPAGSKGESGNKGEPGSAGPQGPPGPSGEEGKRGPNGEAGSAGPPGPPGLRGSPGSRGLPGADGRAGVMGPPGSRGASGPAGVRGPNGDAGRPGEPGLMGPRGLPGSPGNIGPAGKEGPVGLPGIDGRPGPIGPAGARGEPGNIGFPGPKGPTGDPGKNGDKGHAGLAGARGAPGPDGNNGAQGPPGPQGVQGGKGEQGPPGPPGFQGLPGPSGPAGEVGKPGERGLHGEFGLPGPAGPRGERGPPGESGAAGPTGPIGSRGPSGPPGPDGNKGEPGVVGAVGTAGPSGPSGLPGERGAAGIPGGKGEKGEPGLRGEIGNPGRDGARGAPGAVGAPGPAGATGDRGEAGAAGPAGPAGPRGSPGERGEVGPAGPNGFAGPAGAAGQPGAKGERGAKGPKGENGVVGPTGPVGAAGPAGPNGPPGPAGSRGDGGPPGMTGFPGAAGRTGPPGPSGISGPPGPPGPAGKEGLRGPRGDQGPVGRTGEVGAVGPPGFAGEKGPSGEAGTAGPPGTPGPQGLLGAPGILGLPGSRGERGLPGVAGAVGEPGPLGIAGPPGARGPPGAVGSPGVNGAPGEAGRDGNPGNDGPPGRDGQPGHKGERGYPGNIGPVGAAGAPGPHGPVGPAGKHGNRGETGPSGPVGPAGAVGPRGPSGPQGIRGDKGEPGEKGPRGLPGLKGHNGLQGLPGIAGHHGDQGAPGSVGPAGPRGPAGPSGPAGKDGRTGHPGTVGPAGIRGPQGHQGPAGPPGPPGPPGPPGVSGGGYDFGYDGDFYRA
type I collagen, sequence (P02452 162-1218): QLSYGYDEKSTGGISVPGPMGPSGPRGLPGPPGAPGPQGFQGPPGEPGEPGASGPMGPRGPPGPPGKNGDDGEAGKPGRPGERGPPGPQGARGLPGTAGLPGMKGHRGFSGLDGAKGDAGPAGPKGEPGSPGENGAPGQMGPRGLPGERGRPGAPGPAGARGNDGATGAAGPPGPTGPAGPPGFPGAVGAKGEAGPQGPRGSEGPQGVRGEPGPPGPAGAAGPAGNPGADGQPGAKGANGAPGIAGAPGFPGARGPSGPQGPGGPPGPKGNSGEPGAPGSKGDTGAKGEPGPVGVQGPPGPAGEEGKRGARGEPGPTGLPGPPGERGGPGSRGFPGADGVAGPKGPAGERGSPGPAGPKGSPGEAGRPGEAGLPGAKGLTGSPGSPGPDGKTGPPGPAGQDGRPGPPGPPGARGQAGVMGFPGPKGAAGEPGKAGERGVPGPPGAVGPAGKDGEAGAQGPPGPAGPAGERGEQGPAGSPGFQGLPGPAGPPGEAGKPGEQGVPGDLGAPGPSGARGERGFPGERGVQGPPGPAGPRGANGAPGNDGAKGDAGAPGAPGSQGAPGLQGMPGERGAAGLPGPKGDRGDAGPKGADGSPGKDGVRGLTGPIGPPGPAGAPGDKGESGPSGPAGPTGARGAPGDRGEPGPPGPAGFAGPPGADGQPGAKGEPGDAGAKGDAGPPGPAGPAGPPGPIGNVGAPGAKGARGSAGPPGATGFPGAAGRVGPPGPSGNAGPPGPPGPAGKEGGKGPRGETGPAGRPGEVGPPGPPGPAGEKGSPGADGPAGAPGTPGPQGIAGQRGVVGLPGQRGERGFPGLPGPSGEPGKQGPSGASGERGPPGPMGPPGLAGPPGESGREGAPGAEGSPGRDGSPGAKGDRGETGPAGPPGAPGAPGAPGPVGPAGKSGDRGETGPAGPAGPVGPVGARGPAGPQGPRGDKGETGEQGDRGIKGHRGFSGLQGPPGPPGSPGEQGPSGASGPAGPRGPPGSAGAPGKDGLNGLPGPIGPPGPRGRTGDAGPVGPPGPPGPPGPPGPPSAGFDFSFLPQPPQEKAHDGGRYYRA

| Substance | fluorescence intensity compared between peptides (type I collagen; 100 μM (box in FIG. 6), type I collagen, type IV collagen, laminin wells) | binding to type I collagen (fluorescence intensity) (type I collagen; coated wells, 37° C., 3 hours) | selectivity for components of the extracellular matrix (order) (type I collagen; type I collagen, type IV collagen, laminin) | binding to laminin (fluorescence intensity) (laminin) | binding to type IV collagen (fluorescence intensity) (type IV collagen) |
| --- | --- | --- | --- | --- | --- |
| SYIRIADNTNIT | stronger than that of TKKTLRT | in a concentration-dependent manner | type I collagen>type IV collagen>laminin | in a concentration-dependent manner | in a concentration-dependent manner |
| TKKTLRT |  |  |  | in a concentration-dependent manner | in a concentration-dependent manner |
